Assay results: patent US20190300573A1, “HUMAN MYOSIN PEPTIDES” (APITOPE INTERNATIONAL NV, priority 2016, published 2019)

How the values were obtained:
[1] = system: α-myosin sensitized splenic cells; assay: Testing the antigenicity of T cell epitopes (stimulation index, 3H-thymidine incorporation); assay type: cell-based, DR4 mice; conditions: for stimulation index: 3H-thymidine incorporation, peptides 30, 3 and 0.3 μg/ml, screening repeated three times, FIG. 8; for stimulation at the lowest concentration: 0.3 μg/ml
Experimental: The antigenicity of predicted peptides was assessed T cell proliferation against human cardiac myosin was measured by comparison of their stimulation index determined by 3H-thymidine incorporation assay (in brief: cells were pulsed with ^3H-Thymidine for 18 hours at the same conditions by adding 25 μl of diluted ^3H-Tymidine solution in RPMI to each well (final concentration 0.5 μCi/well). Finally, the cells were kept at −20 C.° at least overnight until ready to harvest. After thawing the plates, the cells were harvested onto glass fibre filters (Cox Scientific) using a Combo Cell Harvester (Skatron). Then the filters were soaked in Betaplate Scint liquid scintillation cocktail (Perkin Elmer) and sealed into sample bags (Perkin Elmer). Finally, the sealed bags containing the filters were placed into cassettes and the amount of scintillation was read using 1450 Microbeta Liquid Scintillation Counter (Perkin Elmer) in order to determine the level of ^3H-tymidine incorporation.). The α-myosin sensitized splenic cells were challenged with each peptide (GenScript (USA), peptide concentrations were 30, 3 and 0.3 μg/ml) or whole myosin (30 μg/ml).

[2] = system: cardiac myosin responsive T cell proliferation; assay: Anti-myosin T cell proliferation of splenocytes from EAM DR4 mice; assay type: in vivo; conditions: EAM induction, FIG. 3
Experimental: (§1) Appropriate amount of myosin extract was diluted to the desired volume with PBS, then mixed with equal volume of complete Freund's adjuvant (CFA; Difco) containing 8 mg/ml of heat-killed Mycobacterium Tuberculosis (hkMTB; Difco). The mixture was sonicated for 20 min, then mixed well by a 1 ml syringe until the emulsion became very thick and viscous. 100 μl of the emulsion was applied subcutaneously from tail base at a dose of 100 μg myosin/mouse. On day 0 and 2, 200 ng Pertussis toxin (Sigma Aldrich) in 0.5 ml of PBS was intraperitoneally injected to each mouse as a second adjuvant. In the first trial, the myosin and Pertussis toxin injections were repeated after a week. […] The development of EAM was assessed by echocardiographic and histopathological measurements after 3 weeks from myosin injection. […]
The splenocytes obtained from myosin immunised mice (as described herein) were cultured in 96 well plates in X-Vivo 15 media (Lonza) at a concentration of 5×10^5 cells/well. […] Finally, the cells were kept at −20 C.° at least overnight until ready to harvest. […]
(§2) 2 different combinations of peptides were used for the therapy. […] Mice were terminated 3 weeks after the myosin injection and disease development and adaptive immune responses against cardiac myosin were assessed.

[3] = system: circulating anti-myosin antibodies; assay: ELISA of circulating anti-myosin antibody levels in EAM DR4 mice; assay type: in vivo; conditions: EAM induction, n=5
Experimental: Appropriate amount of myosin extract was diluted to the desired volume with PBS, then mixed with equal volume of complete Freund's adjuvant (CFA; Difco) containing 8 mg/ml of heat-killed Mycobacterium Tuberculosis (hkMTB; Difco). The mixture was sonicated for 20 min, then mixed well by a 1 ml syringe until the emulsion became very thick and viscous. 100 μl of the emulsion was applied subcutaneously from tail base at a dose of 100 μg myosin/mouse. On day 0 and 2, 200 ng Pertussis toxin (Sigma Aldrich) in 0.5 ml of PBS was intraperitoneally injected to each mouse as a second adjuvant. In the first trial, the myosin and Pertussis toxin injections were repeated after a week. However, this second set of injections was excluded in later experiments to avoid induction of a too severe disease that might obscure any benefit of the peptide therapy. Control groups received PBS in hkMTB-boosted CFA (but without human cardiac myosin) as well as Pertussis toxin. The development of EAM was assessed by echocardiographic and histopathological measurements after 3 weeks from myosin injection. […]
After incubation with the alkaline phosphatase-conjugated antibodies, once again the plates were washed four times with PBST. […] Once the colour developed, the reaction was stopped by adding 50 μL of 2M NaOH (Sigma, UK) and the absorbance was measured using LT-5000MS ELISA Reader (Labtech) at a wavelength of 405 nm. […]

EAM induced DR4 mice [4] = assay: Echocardiographic analysis of left ventricle function in EAM DR4 mice; assay type: in vivo; conditions: n=5
Experimental: (§3) Appropriate amount of myosin extract was diluted to the desired volume with PBS, then mixed with equal volume of complete Freund's adjuvant (CFA; Difco) containing 8 mg/ml of heat-killed Mycobacterium Tuberculosis (hkMTB; Difco). The mixture was sonicated for 20 min, then mixed well by a 1 ml syringe until the emulsion became very thick and viscous. 100 μl of the emulsion was applied subcutaneously from tail base at a dose of 100 μg myosin/mouse. On day 0 and 2, 200 ng Pertussis toxin (Sigma Aldrich) in 0.5 ml of PBS was intraperitoneally injected to each mouse as a second adjuvant. In the first trial, the myosin and Pertussis toxin injections were repeated after a week. However, this second set of injections was excluded in later experiments to avoid induction of a too severe disease that might obscure any benefit of the peptide therapy. Control groups received PBS in hkMTB-boosted CFA (but without human cardiac myosin) as well as Pertussis toxin. The development of EAM was assessed by echocardiographic and histopathological measurements after 3 weeks from myosin injection. Spleens were collected to measure cardiac myosin responsive T cell proliferation. Bloods were collected to measure circulating anti-myosin antibody levels.
At the end of the 3 week experiment, the mice were anesthetised by intraperitoneal injection of Tribromoethanol (Avertin; SigmaAldrich) at a dose of 250 mg/kg. The left ventricle functions and diameters were analysed using Vevo 770 high-frequency, high-resolution echocardiography system (Visual Sonics) just before terminating the mice. The anesthetised mice were laid supine and butted to a heated platform by surgical tape stripes. Chest hair were removed by applying hair removal cream and Aquasonic Clear ultrasound transmission gel (Parker Laboratories) was applied to the hairless chest. […]
as §2

EAM induced DR4 mice [5] = assay: Histopathological analysis of myocarditis (H&E inflammatory cell infiltrate); assay type: in vivo; conditions: EAM induction, p=0.0079, Fisher's exact test
Experimental: as §3
The heart was dissected and fixed for 24 hours in 10% (v/v) formalin in PBS for histological analyses. […]

DR4 mice = assay type: in vivo; conditions: first trial, myosin and Pertussis toxin injections repeated after a week; after 3 weeks
Experimental: as §1
In our first trial, it was planned to follow disease progression using echocardiography at 3 and 6 weeks. However, sudden death occurred in 3 out of 5 mice in the α-myosin treated group after 3 weeks, whereas the animals in the control group were all healthy and no signs of myocarditis were detected in their hearts by echocardiographic measurements (data not shown). […]
Body weights of the mice were measured before the induction of EAM and at termination. […]

Substance: PHIFSISDNAYQYML (T cell epitope peptide) [PL]
- stimulation index [1]: stronger stimulation than the rest of them
- stimulation at the lowest concentration ([1]; second screening assay): provided stimulation even at the lowest concentration

Substance: VNPYKWLPVYNAEVV (T cell epitope peptide)
- stimulation index [1]: stronger stimulation than the rest of them

Substance: Whole myosin: myosin extracted from human heart left ventricular wall; immunogen for EAM induction and stimulus in proliferation assays
- stimulation ([1]; second screening assay): 2 fold
- increase in T cell proliferation against cardiac myosin ([2]; 100 μg myosin in CFA + Pertussis toxin, vs control group with CFA and Pertussis toxin only): 5-6 fold
- anti-myosin T cell proliferation ([2]; myosin 0.2, 2.0, 20 μg/ml in culture, n=5): increased
- circulating anti-myosin IgG1 levels ([3]; pmax=0.0008, FIG. 4A): increased significantly
- circulating anti-myosin IgG2c levels ([3]; pmax=0.02, FIG. 4B): significantly increased
- percentage of ejection fraction (EAM induced DR4 mice [4]; EAM induction vs control with only CFA and Pertussis toxin, p=0.003): significant decrease
- fractional shortening (EAM induced DR4 mice [4]; EAM induction vs control with only CFA and Pertussis toxin, p=0.006): significant decrease
- left ventricle systolic dimension (EAM induced DR4 mice [4]; EAM induction, p=0.039, FIG. 6B): significant increase
- mice with inflammation and tissue damage in the heart (EAM induced DR4 mice [5]): 5 out of 5
- sudden death (DR4 mice): 3 out of 5

Substance: YHIFYQILSNKKPEL (T cell epitope peptide) [YL]
- stimulation index [1]: consistently the strongest stimulation amongst the peptides
- stimulation at the lowest concentration ([1]; second screening assay): provided stimulation even at the lowest concentration
